The values below come from the NIST ThermoML archive (doi:10.1016/j.jct.2013.05.019).

Structures are written as SMILES. Numbers after ± are expanded uncertainties.

As a reminder, the viscosity is the internal friction of a fluid under shear. Broadly, the mass density is the mass of a sample divided by its volume.

The conditions of this series: Liquid; for viscosity: Falling or rolling sphere viscometry; for mass density: Vibrating tube method; for electrical conductivity: Alternating current cell with electrodes.

As to `CC(=O)O.CCCCN` [butylammonium acetate], the viscosity by setting is: (293.15 K, 101 kPa) 771.69 ± 71 mPa·s; (298.15 K, 101 kPa) 546.35 ± 44 mPa·s; (303.15 K, 101 kPa) 397.17 ± 28 mPa·s; (308.15 K, 101 kPa) 294.59 ± 18 mPa·s; (313.15 K, 101 kPa) 222.24 ± 11 mPa·s. In addition, the mass density is, setting by setting: (293.15 K, 101 kPa) 959.61 ± 0.23 kg/m3; (298.15 K, 101 kPa) 956.44 ± 0.23 kg/m3; (303.15 K, 101 kPa) 953.33 ± 0.23 kg/m3; (308.15 K, 101 kPa) 950.15 ± 0.23 kg/m3; (313.15 K, 101 kPa) 946.98 ± 0.23 kg/m3. Also, for the setting “298.15 K, 101 kPa”, the electrical conductivity is 0.021 ± 0.001 S/m.

As for `CCCC[NH3+].O=[N+]([O-])[O-]` [n-butylammonium nitrate], the viscosity runs as follows: (293.15 K, 101 kPa) 111.35 ± 3.6 mPa·s; (298.15 K, 101 kPa) 89.95 ± 2.5 mPa·s; (303.15 K, 101 kPa) 73.04 ± 1.8 mPa·s; (308.15 K, 101 kPa) 60.25 ± 1.3 mPa·s; (313.15 K, 101 kPa) 50.12 ± 1.1 mPa·s. Further, the mass density (293.15 K, 101 kPa) came out at 1104.68 ± 0.31 kg/m3; the mass density (298.15 K, 101 kPa) is reported as 1101.52 ± 0.31 kg/m3; the mass density (303.15 K, 101 kPa) came to 1098.38 ± 0.31 kg/m3; the mass density (308.15 K, 101 kPa) is given as 1095.26 ± 0.31 kg/m3; the mass density (313.15 K, 101 kPa) was 1092.17 ± 0.3 kg/m3. The electrical conductivity (298.15 K, 101 kPa) worked out at 0.867 ± 0.017 S/m.

As for `O` [water], the viscosity is 1.002 ± 0.021 mPa·s (293.15 K, 101.33 kPa); 0.89 ± 0.019 mPa·s (298.15 K, 101.33 kPa); 0.797 ± 0.017 mPa·s (303.15 K, 101.33 kPa); 0.718 ± 0.015 mPa·s (308.15 K, 101.33 kPa); 0.651 ± 0.014 mPa·s (313.15 K, 101.33 kPa).
